Experimental findings from patent US7189750B2, “Thiazole-based nitric oxide donors having at least two thiazole moieties and uses thereof” (priority 2004, dated 2007) are described below.

Experiment [1] relates to isolated rat aorta. The experiment in a line: In vitro induction of tolerance and cross-tolerance: vasorelaxation of pre-exposed rat aortic rings. Particulars: for EC50: Rattus norvegicus; for tolerance induction in vitro: rings pre-treated with epinephrine and then with the same compound (0.44 mM). Type of experiment: cell-based. As to the method: Aortic rings were prepared as described hereinabove, and were exposed to 0.44 mM GTN (vehicle was water:ethanol:propyleneglycol at proportional ratio of 1:1:1) for 1 hour before CCRC construction, to thereby induce tolerance to nitroglycerine. At the end of the tolerance induction period, rings were thrice washed with the path buffer (Krebs-bicrbonate) every 15 minutes for the following hour and then CCRC for vasorelaxation on GTN-induced tolerance rings were constructed for GTN (pretreated versus untreated rings, FIG. 15), in order to verify the ability to induce and measure GTN tolerance induction in vitro
Attempted induction of tolerance to the NO-donating compounds of the present invention was performed under the same conditions as for GTN. Thus, in an exemplary experiment, rings were exposed to 0.44 mM solution of Pet-3 in the attempt to induce tolerance for Pet-3. CCRC were then measured for the vasorelaxing effect of Pet-3 on a group of rings which were pre-exposed to Pet-3 as to induce tolerance to Pet-3, and for an untreated control group. The above protocol was repeated with Pet-2, Pet-7, Pet-8, Pet-12, Pet-24, Pet-43, Pet-149 and Pet-152.
Cross-tolerance studies were conducted using the same technique described above for measuring vasorelaxation of aortic rings from rats. Two groups of aortic rings samples were pre-treated with GTN, then one group was measured for vasorelaxation by GTN and the second group for vasorelaxation by Pet-12, an exemplary NO-donor according to the present invention. For the opposite cross-tolerance studies, two groups of aortic rings samples were pre-treated with Pet-12, then one group was measured for vasorelaxation by GTN and the second group for vasorelaxation by Pet-12.

Experiment [2] deals with isolated rat aorta. The experiment in a line: In vitro vasorelaxation of epinephrine-contracted rat aortic rings (CCRC). Type of experiment: cell-based. The source says:
Male Sprague Dawley rats were anaesthetized using intraperitoneal injection of ketamine and xylazine (50 and 10 milligram per kilogram, respectively) and the thoracic aorta, the large upper portion of the descending aorta, starting at the caudal border of the chest bone, was removed thereafter, while carefully removing the paraadventetial tissue surrounding the vessel. Aortae were cut into rings of 4–5 millimeters and mounted onto the tissue path. The path buffer (Krebs-bicrbonate) was constantly gassed with carbogen and maintained at 37° C. The rings were preloaded under 2 g tension and equilibrated for 90 minutes, while refreshing the buffer every 15 minutes. After stabilization, the rings were contracted with epinephrine (1 μM). Cumulative Concentration-Response Curves (CCRC) were measured for the vasorelaxing effect induced by adding various concentrations, ranging from 10^−10 M to 10^−5 M of Pet-2, Pet-3, Pet-7, Pet-8, Pet-12, Pet-24, Pet-43, Pet-59, Pet-147, Pet-152 and Pet-154, and glyceryltrinitrate (GTN), according to the procedure described in Feelich et al., Molecular Pharmacology, 56:243–253 (1999). The vehicle, which was used for this experiment was water:ethanol:propyleneglycol at proportional ratio of 1:1:1.
The vasorelaxing effect of the thiazole-derived NO-donors according to the present invention was measured on slices of thoracic aorta of rats contracted with epinephrine, as described hereinabove.

The subject of a further experiment is Male Sprague Dawley rats. The experiment in a line: Induction of in vivo nitrate tolerance: cGMP in aorta of rats infused with the compound. As to conditions: for level of cGMP following a repeated treatment in vivo: aorta of rats pre-treated in vivo, re-exposed to 1 μM; for in vivo tolerance induction: cGMP in aorta of rats pre-treated in vivo with the compound, 200 μg/hour for 16 hours. Further details: species or system rat. As to the method:
For c-GMP levels and tolerance development, the rat's thoracic aorta was isolated after exposure to the tested compound in vivo, and measured as described above in the in vitro assays.
Male Sprague Dawley rats (220 to 250 grams) were housed under constant temperature and humidity conditions. Light was maintained at a 12/12 light dark cycle. Except for 12 hours before the experiment, when food fasting was initiated, all rats had free access to standard rat pellet diet and tap water. The animals were anesthetized by intraperitoneal injection of ketamine and xylazine combination (50 and 10 milligram per kilogram, respectively). […] The catheters were filled with normal saline solution containing 1000 IU/ml of heparin and plugged with a metal pin. Catheters were externalized to the back of the neck region and secured by a polyester felt disk.
After implantation, the rats were individually housed until they regained their preoperative weight and appeared healthy (3 to 4 days post-operation). At this time point (day 0), an osmotic mini-pump (Alza Corp., Palo Alto, Calif.) delivering constant volume (10 μl/hour) of vehicle or drug was connected to one of the intravenous catheters.
For inducing tolerance to the tested NO-donor according to the present invention, the animals received 200 μg/hour of the tested compound for 16 hours (short-term-induced tolerance). A similar number of animals were processed by the same surgical procedure and received the vehicle alone (10 μl/hour of a solution consisting of 30% ethanol and 30% propylene glycol in sterile distilled water for injection).
At the end of the infusion periods used for the development of tolerance (16 hour), the rats were anesthetized as described above, the two catheters were externalized and the delivering catheters were disconnected from the mini-pump. The abdomen was opened by midline incision and the thoracic aorta were isolated, washed and cleaned from the surrounding tissues. Strips of the treated aortas were pooled in chambers containing Krebs-Hanseliet buffer (10 ml), and exposed to 1 μM of the tested NO-donor (final concentration) for 120 seconds. The tissues were quickly collected and frozen in liquid nitrogen for cGMP measurement, described hereinabove.

Experiment [3] has as its system anesthetized hypertensive Sprague-Dawley male rats. In words: Hypotensive effects: mean arterial pressure after iv bolus in phenylephrine-treated rats. Particulars: rat. It is filed as in vivo. The method, then:
Mean arterial pressure (MAP) was monitored and determined during bolus infusion of Pet-2, Pet-3, Pet-7, Pet-8, Pet-12 and Pet-13. Briefly, polyethylene catheters (PE50) were inserted into the carotid artery and into the jugular vein of anesthetized hypertensive Sprague-Dawley male rats (200–300 grams). A blood pressure recorder was placed within the carotid artery. Phenylephrine (0.1 mg) was then injected and the mean arterial blood pressure (MABP) was monitored continuously until a stable baseline was reached. The hypotensive effects of intravenous (iv) bolus doses (0.1 mg of each tested compound) administered intravenously at the jugular vein in minimal volume of vehicle (0.2 ml per dose) were evaluated. Five minutes were allowed between each dose, during which the maximal decrease in MAP was recorded and a dose-response graph comparing the hypotensive effect of the compounds was constructed.

Experiment [4] relates to c-GMP in slices of thoracic aorta of rats. In words: Cyclic-GMP measurement in aortic rat tissue (radioimmunoassay). Type of experiment: cell-based. Particulars: rat aorta; for cGMP Post-infusion: post-infusion (repeated treatment). As to the method:
GTN (10^−6 M) was added to the chamber and, 1 minute after exposure to the drug, rings (usually 3–5) were taken, wrapped with aluminum foil and immediately frozen in liquid nitrogen for storage. Control sample group was treated with the vehicle solution only. At the time of analysis, rings were thawed, blotted over a dry gauzed and weighted. A known weight of tissue was homogenized in 2 ml ice-cold modified Hank's balanced salt solution containing (in gram/liter) NaCl 8; KCl 0.4; glucose 1; KH2PO4 0.06; Na2HPO4 0.047; Phenol red 0.017 and further containing 25 mM EDTA (disodium salt). The homogenate was centrifuged at 4000 g (force units) for 10 minutes at 2–4° C. and the supernatant was thereafter transferred into fresh pre-cooled test tube containing 1 ml of acetonitrile. The tubes were vortex mixed for a few seconds and subsequently centrifuged at 4000 g for 5 minutes at 2–4° C., to remove the precipitated protein. Each supernatant was transferred into a clean test tube and evaporated to dryness under a stream of nitrogen at 55° C. The dry residue was reconstituted with 10 volumes of Tris-EDTA buffer pH 7.5 (0.05 M Tris containing 4 mM EDTA). Aliquots of 100 μl of the reconstituted solution in duplicate were used for c-GMP measurements using Amersham RIA kit, as is described in Haj-Yehia & Benet [Pharmacology, 1995, 273, 1, pp. 94–100]. Standard curves were plotted with six concentrations (0, 0.5, 1, 2, 4 and 8 pmoles of c-GMP per tube).
The NO-tolerance effect of GTN and NO-donor compounds according to the present invention was measured by following the production of c-GMP in slices of thoracic aorta of rats. Thus, the production of c-GMP was measured as described in the methods section above for the reference NO-donor compound GTN, and for the NO-donors of the present invention Pet-2, Pet-3, Pet-7, Pet-8, Pet-10, Pet-12, Pet-24, Pet-59, Pet-147, Pet-149, Pet-152, Pet-154 and Pet-155.

Setting [5] is: vasorelaxation of rings pre-exposed to 0.44 mM of the same compound for 1 hour, given as negative log value, read-out: EC50 (converted).
The mark [6] stands for this setting: vasorelaxation of rings pre-exposed to 0.44 mM of the same compound for 1 hour, read-out: Concentration.
[7] abbreviates: vasorelaxation, rat aortic rings contracted with 1 μM epinephrine, 10^−10 M to 10^−5 M, read-out: Concentration.
Where [8] appears, read: vasorelaxation, rat aortic rings contracted with 1 μM epinephrine, given as negative log value, read-out: EC50 (converted).

Each structure is given as a SMILES string. Entries after “also recorded” stand apart in the source; their conditions may differ.

Consider `O=[N+]([O-])OCC(CO[N+](=O)[O-])O[N+](=O)[O-]` [GTN, glyceryl trinitrate, reference compound], for which the EC50 with isolated rat aorta [1] (setting [5]) was 31.6 nM. For the same compound, the EC50 with isolated rat aorta [1] (setting [6]) was found to be 44.7 nM. Besides, the “tolerance induction in vitro” value in the experiment on isolated rat aorta [1] is given as “tolerance induced”. For the same compound, the EC50 in the experiment with isolated rat aorta [2] (setting [7]) amounted to 44.7 nM. For the same compound, the EC50 in the experiment on isolated rat aorta [2] (setting [8]) is 28.2 nM. In the experiment with Male Sprague Dawley rats, the “level of cGMP following a repeated treatment in vivo” value was “decreased” and the “in vivo tolerance induction” value is given as “tolerance inducing effect”. Besides, in experiment [3], the “hypotensive effect on MAP following successive administrations” value is given as “attenuation”. In experiment [4], the “c-GMP level following a repeated treatment” value is listed as “significantly reduced”, the “cGMP Post-infusion” value is reported as 45 ± 12 pmol/g tissue and the “cGMP Pre-infusion” value amounted to 127 ± 11 pmol/g tissue.

Regarding `CCc1nc(C)c(CCO[N+](=O)[O-])s1` [Pet-2, 2-Ethyl-4-methyl-5-(2-nitrooxy-ethyl)-thiazole], the EC50 in the experiment with isolated rat aorta [1] (1 h) was 39.8 nM; in the experiment with isolated rat aorta [1] (1 h, read-out: Concentration) it was 39.8 nM; in the experiment on isolated rat aorta [2] (Rattus norvegicus), 25.1 nM; in the experiment on isolated rat aorta [2] (Rattus norvegicus, read-out: Concentration), 25.1 nM. Further, the “vasorelaxation effect as compared with glyceryltrinitrate” value in the experiment on isolated rat aorta [2] (isolated rat aorta, 1 μM epinephrine) is recorded as “superior”. In addition, in the experiment on Male Sprague Dawley rats, the “level of cGMP following a repeated treatment in vivo” value is listed as “remained substantially unchanged”. Moreover, in the experiment with Male Sprague Dawley rats, the “in vivo tolerance induction” value is given as “absence of tolerance induction; also recorded: absence of tolerance effect”. The “cGMP Post-infusion” value in experiment [4] was 140 ± 13 pmol/g tissue. Also, the “cGMP Pre-infusion” value in experiment [4] stood at 143 ± 13 pmol/g tissue.

As for `Cc1nc(-c2cccnc2)sc1CCO[N+](=O)[O-]` [Pet-12, 3-[4-Methyl-5-(2-nitrooxy-ethyl)-thiazole-2-yl]-pyridine], the EC50 in the experiment with isolated rat aorta [1] (setting [5]) is 63.1 nM; in the experiment on isolated rat aorta [1] (setting [6]), 63.1 nM; with isolated rat aorta [2] (setting [7]) it was 39.8 nM; in the experiment on isolated rat aorta [2] (setting [8]), 39.8 nM. In addition, in the experiment with isolated rat aorta [1] (rings made tolerant to GTN), the “vasorelaxation in rings pre-treated with GTN (cross-tolerance, words)” value is “absence of tolerance induction effect; also recorded: no effect”. Moreover, the “tolerance after pre-treatment with Pet-12, to itself and to GTN” value in the experiment on isolated rat aorta [1] (rings pre-treated with Pet-12) is given as “absence of tolerance induction effect; also recorded: does not evoke tolerance”. In the experiment with isolated rat aorta [1], the “tolerance induction in vitro” value is “absence of tolerance induction”. The “in vivo tolerance induction” value in the experiment on Male Sprague Dawley rats is given as “absence of tolerance induction; also recorded: absence of tolerance effect; also recorded: lack of tolerance induction”. The “cGMP Post-infusion” value in experiment [4] is reported as 112 ± 12 pmol/g tissue. The “cGMP Pre-infusion” value in experiment [4] turned out to be 127 ± 11 pmol/g tissue.
